Reference: US12559529B2, “NPY2 receptor agonists” (Boehringer Ingelheim International GmbH, priority 2019, dated 2026)

Tests used:
[1] = target: T1, Human Neuropeptide Y2 Receptor (Homo sapiens, UniProt P49146); assay: Radioligand binding competition assay (RLB); conditions: Table 3; human 125I-PYY (1-36) 0.02 nM, Y2 receptor membranes; read-out: Ki
T1 construct: purchased CHEMICON HTS066M
T1 sequence (P49146 1-381): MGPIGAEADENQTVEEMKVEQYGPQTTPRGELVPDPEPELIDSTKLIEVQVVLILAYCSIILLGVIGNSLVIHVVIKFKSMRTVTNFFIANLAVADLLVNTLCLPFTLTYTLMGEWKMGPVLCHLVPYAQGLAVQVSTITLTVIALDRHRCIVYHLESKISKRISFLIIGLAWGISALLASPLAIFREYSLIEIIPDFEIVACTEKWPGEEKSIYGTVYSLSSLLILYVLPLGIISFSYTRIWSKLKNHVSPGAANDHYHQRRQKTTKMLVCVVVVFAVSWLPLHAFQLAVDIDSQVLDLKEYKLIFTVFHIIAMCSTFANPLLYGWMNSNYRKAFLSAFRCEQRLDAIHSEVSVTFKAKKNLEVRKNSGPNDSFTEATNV
In short: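 Competition binding at commercial human NPY Y2 membrane preparations, 0.5 μg protein per well, 2 h incubation at room temperature. Bound and free ligand were separated on GF/C filters and counted; IC50 was fitted by nonlinear regression.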

normal NMRI mice = assay: Effect on acute food intake in normal NMRI mice; assay type: in vivo; conditions: male NMRI mice, 10 nmol/kg subcutaneously once
In short: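 Male NMRI mice acclimatized in an HM-2 real-time food intake monitoring system, fasted 6 h before dark phase. Single subcutaneous dose of 10 nmol/kg peptide given 1 h before dark; n=7-8. Food intake expressed as % of vehicle group (50 mM phosphate pH7, 5% Mannitol).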

| SMILES | Ki [1] [nM] | Acute Food Intake 24 h [% vehicle] (normal NMRI mice) |
| --- | --- | --- |
| CC[C@H](C)[C@H](NC(=O)[C@H](CCC(=O)O)NC(=O)[C@H](CCC(=O)O)NC(=O)[C@@H]1CCCN1C(=O)[C@H](CCC(=O)O)NC(=O)[C@H](C)NC(=O)[C@H](CC(=O)O)NC(=O)[C@H](CCC(=O)O)NC(=O)[C@H](CCC(=O)O)NC(=O)[C@@H]1CCCN1C(=O)[C@H](CCCCNC(=O)COCCOCCNC(=O)COCCOCCNC(=O)CC[C@H](NC(=O)CCCCCCCCCCCCCCCCC(=O)O)C(=O)O)NC(=O)[C@H](CCC(=O)O)NC(=O)[C@@H]1CCCN1C(=O)[C@H](C)NC(=O)CC(C)C)C(=O)N[C@@H](CCC(N)=O)C(=O)N[C@@H](CCCNC(=N)N)C(=O)N[C@@H](Cc1ccc(O)cc1)C(=O)N[C@@H](Cc1ccc(O)cc1)C(=O)N[C@H](C(=O)N[C@@H](CO)C(=O)N[C@@H](CC(C)C)C(=O)N[C@@H](CCCNC(=N)N)C(=O)N[C@@H](Cc1c[nH]cn1)C(=O)N[C@@H](Cc1ccc(O)cc1)C(=O)N[C@@H](Cc1ccc(O)cc1)C(=O)N[C@@H](CC(N)=O)C(=O)N[C@@H](Cc1c[nH]c2ccccc12)C(=O)N[C@@H](CC(C)C)C(=O)N[C@H](C(=O)N[C@@H](CCCNC(=N)N)C(=O)N[C@@H](CCC(N)=O)C(=O)N[C@@H](CCCNC(=N)N)C(=O)N[C@@H](Cc1ccc(O)cc1)C(N)=O)[C@@H](C)O)C(C)C [Compound 110, N{alpha-4}-(3-methylbutanoyl)-N{epsilon-7}-[2-(2-{2-[2-(2-{2-[(4S)-4-carboxy-4-(17-carboxyheptadecanamido)butanamido]ethoxy}ethoxy)acetamido]ethoxy}ethoxy)acetamido]-[4A,7K,9E,13E,17I,18Q,22V,28Y,30W,31L]hPYY (4-36)] | 0.77 | 67 |
| CC(C)CC(=O)N[C@@H](C)C(=O)N1CCC[C@H]1C(=O)N[C@@H](CCC(=O)O)C(=O)N[C@@H](CCCCNC(=O)COCCOCCNC(=O)COCCOCCNC(=O)CC[C@H](NC(=O)CCCCCCCCCCCCCCCCC(=O)O)C(=O)O)C(=O)N1CCC[C@H]1C(=O)N[C@@H](CCC(=O)O)C(=O)N[C@@H](CCC(=O)O)C(=O)N[C@@H](CCC(=O)O)C(=O)N[C@@H](C)C(=O)N[C@@H](CO)C(=O)N1CCC[C@H]1C(=O)N[C@@H](CCC(=O)O)C(=O)N[C@@H](C)C(=O)N[C@@H](CC(C)C)C(=O)N[C@@H](CCC(N)=O)C(=O)N[C@@H](CCCNC(=N)N)C(=O)N[C@@H](Cc1ccc(O)cc1)C(=O)N[C@@H](Cc1ccc(O)cc1)C(=O)N[C@H](C(=O)N[C@@H](CO)C(=O)N[C@@H](CC(C)C)C(=O)N[C@@H](CCCNC(=N)N)C(=O)N[C@@H](Cc1c[nH]cn1)C(=O)N[C@@H](Cc1ccc(O)cc1)C(=O)N[C@@H](Cc1ccc(O)cc1)C(=O)N[C@@H](CC(N)=O)C(=O)N[C@@H](Cc1c[nH]c2ccccc12)C(=O)N[C@@H](CC(C)C)C(=O)N[C@H](C(=O)N[C@@H](CCCNC(=N)N)C(=O)N[C@@H](CCC(N)=O)C(=O)N[C@@H](CCCNC(=N)N)C(=O)N[C@@H](Cc1ccc(O)cc1)C(N)=O)[C@@H](C)O)C(C)C [Compound 115, N{alpha-4}-(3-methylbutanoyl)-N{epsilon-7}-[2-(2-{2-[2-(2-{2-[(4S)-4-carboxy-4-(17-carboxyheptadecanamido)butanamido]ethoxy}ethoxy)acetamido]ethoxy}ethoxy)acetamido]-[4A,7K,9E,11E,16A,18Q,22V,28Y,30W,31L]hPYY (4-36)] | 1.94 | 49 |
| CC[C@H](C)[C@H](NC(=O)[C@H](CCC(=O)O)NC(=O)[C@H](CCC(=O)O)NC(=O)[C@@H]1CCCN1C(=O)[C@H](C)NC(=O)[C@H](C)NC(=O)[C@H](CC(=O)O)NC(=O)[C@H](CCC(=O)O)NC(=O)[C@H](CCC(=O)O)NC(=O)[C@@H]1CCCN1C(=O)[C@H](CCCCNC(=O)COCCOCCNC(=O)COCCOCCNC(=O)CC[C@H](NC(=O)CCCCCCCCCCCCCCCCC(=O)O)C(=O)O)NC(=O)[C@H](CCC(=O)O)NC(=O)[C@@H]1CCCN1C(=O)[C@H](C)NC(=O)CC(C)C)C(=O)N[C@@H](CCC(N)=O)C(=O)N[C@@H](CCCNC(=N)N)C(=O)N[C@@H](Cc1ccc(O)cc1)C(=O)N[C@@H](Cc1ccc(O)cc1)C(=O)N[C@H](C(=O)N[C@@H](CO)C(=O)N[C@@H](CC(C)C)C(=O)N[C@@H](CCCNC(=N)N)C(=O)N[C@@H](Cc1c[nH]cn1)C(=O)N[C@@H](Cc1ccc(O)cc1)C(=O)N[C@@H](Cc1ccc(O)cc1)C(=O)N[C@@H](CC(N)=O)C(=O)N[C@@H](Cc1c[nH]c2ccccc12)C(=O)N[C@@H](CC(C)C)C(=O)N[C@H](C(=O)N[C@@H](CCCNC(=N)N)C(=O)N[C@@H](CCC(N)=O)C(=O)N[C@@H](CCCNC(=N)N)C(=O)N[C@@H](Cc1ccc(O)cc1)C(N)=O)[C@@H](C)O)C(C)C [Compound 124, N{alpha-4}-(3-methylbutanoyl)-N{epsilon-7}-[2-(2-{2-[2-(2-{2-[(4S)-4-carboxy-4-(17-carboxyheptadecanamido)butanamido]ethoxy}ethoxy)acetamido]ethoxy}ethoxy)acetamido]-[4A,7K,9E,13A,17I,18Q,22V,28Y,30W,31L]hPYY (4-36)] | 0.5 | 58 |
| CC(C)CC(=O)N[C@@H](C)C(=O)N1CCC[C@H]1C(=O)N[C@@H](CCC(=O)O)C(=O)N[C@@H](CCCCNC(=O)COCCOCCNC(=O)COCCOCCNC(=O)CC[C@H](NC(=O)CCCCCCCCCCCCCCCCC(=O)O)C(=O)O)C(=O)N1CCC[C@H]1C(=O)N[C@@H](CCC(=O)O)C(=O)N[C@@H](CCC(=O)O)C(=O)N[C@@H](CC(=O)O)C(=O)N[C@@H](C)C(=O)N[C@@H](CO)C(=O)N1CCC[C@H]1C(=O)N[C@@H](CCC(=O)O)C(=O)N[C@@H](CCC(=O)O)C(=O)N[C@@H](CC(C)C)C(=O)N[C@@H](CCC(N)=O)C(=O)N[C@@H](CCCCN)C(=O)N[C@@H](Cc1ccc(O)cc1)C(=O)N[C@@H](Cc1ccc(O)cc1)C(=O)N[C@H](C(=O)N[C@H](C(=O)N[C@@H](CC(C)C)C(=O)N[C@@H](CCCNC(=N)N)C(=O)N[C@@H](Cc1c[nH]cn1)C(=O)N[C@@H](Cc1ccc(O)cc1)C(=O)N[C@@H](Cc1ccc(O)cc1)C(=O)N[C@@H](CC(N)=O)C(=O)N[C@@H](Cc1c[nH]c2ccccc12)C(=O)N[C@@H](CC(C)C)C(=O)N[C@H](C(=O)N[C@@H](CCCNC(=N)N)C(=O)N[C@@H](CCC(N)=O)C(=O)N[C@@H](CCCNC(=N)N)C(=O)N[C@@H](Cc1ccc(O)cc1)C(N)=O)[C@@H](C)O)[C@@H](C)O)C(C)C [Compound 132, N{alpha-4}-(3-methylbutanoyl)-N{epsilon-7}-[2-(2-{2-[2-(2-{2-[(4S)-4-carboxy-4-(17-carboxyheptadecanamido)butanamido]ethoxy}ethoxy)acetamido]ethoxy}ethoxy)acetamido]-[4A,7K,9E,18Q,19K,22V,23T,28Y,30W,31L]hPYY (4-36)] | 1.18 | 64 |
